Patent US5484725A, “Norbornane type ester hydrolase from Acetobacter pasteurianus” (Shionogi & Co., Ltd., priority 1993, dated 1996)

Legend:
[1] = tested on: norbornane type ester hydrolase; test: Effect of inhibitors on the enzyme (pNPA method); format: biochemical, Acetobacter pasteurianus ATCC 12873; conditions: 5 mM inhibitor, phosphate buffer pH 7.0, 30° C., 2 hours, then pNPA method
Experimental: The present enzyme was allowed to stand in phosphate buffers respectively including various inhibitors (5 mM) at pH 7.0 for 2 hours. Then, the activity of the enzyme was measured by the method described in item 3.
The above-mentioned activity measurement was performed with regard to 0.5 ml of the enzyme solution of 0.1M phosphate buffer (pH 7.0) containing 5 mM of one of the following inhibitors: ethylenediaminetetraacetic acid (EDTA), phenylmethylsulfonylfluoride (PMSF), N-tosyl-L-phenylalanyl chloromethyl ketone (TPCK), N-tosyl-L-lysyl chloromethyl ketone (TLCK), diisopropyl fluorophosphate (DFP), N-ethylmaleimide and iodoacetic acid. The enzyme solutions, including the respective inhibitors, were allowed to stand at 30° C. for 2 hours.

[2] = tested on: norbornane type ester hydrolase; test: Optically selective hydrolysis of (±)-exo-norbornane type esters by purified enzyme, optical resolution GC; format: biochemical, Acetobacter pasteurianus ATCC 12873; conditions: 1% ester, 30° C., 30 minutes
Experimental: Various kinds of the (±)-exo-norbornane type esters respectively comprising formyl, acetyl, propionyl, n-butyryl or isobutyryl as the acyl R in formula I were allowed to come in contact with an enzyme solution, respectively as a substrate. Each of the obtained products was extracted with an equal volume of chloroform. The extract was analyzed by gas chromatography using a column for optical resolution (produced by J & W Scientific). (-)-Norborneol was selectively produced in all the extracts. […] In detail, referring to FIG. 1, (+)-(1S, 2S, 4R)-exo-norbornyl acetate is hydrolysed to the corresponding (-)-norborneol by the use of the present enzyme. The obtained (-)-norborneol can be converted to (+)-d-norcamphor by oxidation. The remaining (-)-(1R, 2R, 4S)-exo-norbornyl acetate can be hydrolysed to the corresponding (+)-norborneol by the use of an alkali. The obtained (+)-norborneol can be converted to (-)-d-norcamphor by oxidation.
The purified enzyme obtained in Example 1 was allowed to come in contact with various kinds of 1% (±)-exo-norbornane type esters respectively including formyl, acetyl, propionyl, n-butyryl and isobutyryl as the acyl R in formula I. The reaction was conducted at 30° C. for 30 minutes. The resultant was extracted with an equal volume of chloroform. The extract was analyzed by gas chromatography using a column for optical resolution (produced by J & W Scientific). As is apparent from the results shown in Table 2, (-)-norborneol was enantio-selectively produced from any of the esters.

[3] = tested on: E. coli JM109 transformed by using the plasmid pUNA-Hf; test: Hydrolysis of (±)-exo-norbornyl acetate by transformant E. coli JM109 with pUNA-Hf; format: cell-based; conditions: 1% substrate, 30° C., 10 minutes
Experimental: E. coli JM109 was transformed by using the plasmid pUNA-Hf. […] Then, the transformant was mixed with a 1% (±)-exo-norbornyl acetate mixture and allowed to stand at 30° C. for 10 minutes. The resulting mixture was analyzed by the method described in item 5 of Example 2. […] Thus, the optical selectivity was confirmed to be as high as that of the enzyme derived from Acetobacter pasteurianus obtained in Example 1.

[4] = tested on: E. coli JM103 including the plasmid pUNA-Hf; test: Optically selective deacetylation of exo-norbornyl acetate by E. coli JM103/pUNA-Hf cell suspension; format: cell-based; conditions: 1% substrate, 30° C., 15 minutes
Experimental: (±)-Exo-norbornyl acetate used as a substrate was optically selectively deacetylated by E. coli JM103 including the plasmid pUNA-Hf as follows. The bacterial cells were collected from the cultured broth of E. coli JM103/pUNA-Hf as mentioned above by centrifugation, and suspended in an equal volume of a 0.1M phosphate buffer (pH 7.0). Then, 1% (±)-exo-norbornyl acetate was added to 1.5 ml of the obtained suspension, and the reaction was conducted at 30° C. for 15 minutes. The resultant reaction mixture was analyzed by the method described in item 5 of Example 2.

Compound	Produced norborneol (+)-isomer [2]	Produced norborneol (-)-isomer [2]	inhibition of the enzyme by inhibitor [1]	(+)-exo-norborneol produced [3]	(-)-exo-norborneol produced [3]	(+)-exo-norborneol produced [4]	(-)-exo-norborneol produced [4]
O=S(=O)(F)Cc1ccccc1 [PMSF, phenylmethylsulfonylfluoride]			completely inhibited				
CC(=O)O[C@H]1C[C@@H]2CC[C@H]1C2 (relative stereo) [Acetyl, (±)-exo-norbornyl acetate]	0.19 mg/mL	2.48 mg/mL		0.15 mg/mL	1.68 mg/mL	0.15 mg/mL	1.91 mg/mL

Further lines, with some results ahead:

Produced norborneol (+)-isomer [2]	Produced norborneol (-)-isomer [2]	Compound	inhibition of the enzyme by inhibitor [1]	(+)-exo-norborneol produced [3]	(-)-exo-norborneol produced [3]	(+)-exo-norborneol produced [4]	(-)-exo-norborneol produced [4]
0.45 mg/mL	3.39 mg/mL	CCC(=O)O[C@H]1C[C@@H]2CC[C@H]1C2 (relative stereo) [Propionyl]					
0.29 mg/mL	2.30 mg/mL	CCCC(=O)O[C@H]1C[C@@H]2CC[C@H]1C2 (relative stereo) [n-butyryl]					
0.69 mg/mL	2.76 mg/mL	CC(C)C(=O)O[C@H]1C[C@@H]2CC[C@H]1C2 (relative stereo) [isobutyryl]					
0.15 mg/mL	1.49 mg/mL	O=CO[C@H]1C[C@@H]2CC[C@H]1C2 (relative stereo) [Formyl]					
